# Assay results taken from patent publication US8481459B2, “Chemical inhibitors of ethylene biosynthesis” (Academia Sinica, priority 2010, dated 2013).
# Tested on: gene expression in etiolated eto1-4 seedlings
# Experiment: Transcriptional profiling (ATH1 GeneChip microarray) of etiolated eto1-4 seedlings
# Format: in vivo, Arabidopsis thaliana
# Experimental: For chemical treatments, seeds were sown on 0.5×MS agar medium supplemented with 10 μM chemicals (AVG, compounds 9393, 9370, and 7303) or DMSO (as control). Arabidopsis seeds were stratified in the dark at 4° C. for 4 days, then germinated in the dark for 3 days at 22° C. Approximately 2,000 etiolated seedlings of the wild type or eto1-4 were used to collect tissues for preparation of total RNA in each microarray experiment with Arabidopsis ATH1 GeneChip (Affymetrix). Extraction of RNA followed an established protocol (Chang, et al. (1993) Plant Mol. Biol. Rep. 11, 113-117). Total RNA (10 μg) was used to prepare biotinylated cRNA for hybridization to ATH1 GeneChip in the experiments disclosed herein. Experiments were repeated by 2 independent biological duplicates, and candidate genes present in both experiments were selected for further analysis. The MASS method was used for data analysis and normalization by all sample medium. Candidate genes were selected by the following criteria. First, genes with 1.5-fold differential expression between the wild type and eto1-4 were selected as the master gene pool, which was then used for comparison in treatments with AVG and individual exemplary compounds. Data were presented in hierarchical clustering and Venn diagram format. Agilent GeneSpring GX and Bioconductor software were used to analyze the expression profile data. Gene Ontology descriptions were generated by GeneSpring GX and further referred to the TAR GO database. Raw data are available in the GEO database (http://www.ncbi.nlm.nih.gov/geo) with Accession no. GSE20897.
# The filtered and normalized expression data set from 22810 probes on the ATH1 Genechip was used for hierarchical clustering of gene expression profiles for comparison between AVG and the exemplary invention compounds in eto1-4. It was identified that 1,446 genes show at least 1.5-fold difference in expression between the WT and eto1-4 and used them as the master gene pool for clustering analysis (FIG. 7A). […] These genes likely contribute to the etiolated phenotype of eto1-4 by responding to elevated endogenous ethylene. To determine whether the exemplary compounds have specific r overlapping functions with AVG to suppress the eto1-4 phenotype, genes that are regulated by individual exemplary invention compounds and AVG for Venn diagram analysis were clustered (FIG. 7B). More than 63% of genes (356/561 for compound 9393; 389/561 for compound 9370; 399/561 for compound 7303; FIG. 7B) with expression associated with AVG were co-regulated by the exemplary invention compounds, which indicates an overlap function in suppression of the ethylene phenotype in eto1-4. […] Next genes co-regulated by all of the exemplary invention compounds and AVG were examined by performing a clustering analysis using the co-regulated genes identified in FIG. 7B: 356 (compound 9393 vs AVG), 389 (compound 9370 vs AVG) and 399 genes (compound 7303 vs AVG). It was uncovered that 276 genes were co-regulated by all of the exemplary invention compounds and AVG (FIG. 7C and Table 2). On the basis of GO descriptions generated by Gene Spring GX and TAIR database, the 276 genes were divided into subgroups related to their biological functions (Table 2). […] In addition, stress- and pathogenesis-related genes were among the co-regulated genes, possibly because ethylene is involved in both biotic and abiotic stresses.
# Genes (1446 non-redundant loci) were selected by 1.5-fold differential expression between eto1-4 and WT as the master pool for analysis. These genes were used for comparison between chemical treatments by AVG and the exemplary invention compounds. The finalized 276 genes that are co-regulated by AVG and all of the exemplary invention compounds are shown. Locus ID also present in Nemhauser et al. (Nemhauser, et al. (2006) Cell 126, 467-475).
# [1] = of 1446 genes differentially expressed between WT and eto1-4, 10 μM
# [2] = ratio eto1-4 treated to eto1-4 (no treatment)
structure (smiles),measurement,setting,value
COc1ccc(C2CC(=O)c3cnc(Nc4ccccc4)nc3C2)cc1 (centres unmarked) [Compound 7303],number of genes co-regulated with AVG,"of 561 genes associated with AVG, 10 μM",399 genes
same,number of genes regulated (expression reverted close to WT),[1],650 genes
same,percentage of genes regulated (expression reverted close to WT),[1],45.0%
same,"number of genes regulated specifically, not related to AVG treatment","of all genes regulated by the compound (629, 728, 650), 10 μM",251 genes
same,"Signal Fold Change AT1G03457, unknown biological function",[2],3.04
same,"Signal Fold Change AT1G03660, unknown biological function",[2],1.59
same,Signal Fold Change AT1G05010 ACC oxidase,[2],0.30
same,Signal Fold Change AT1G05760 jacalin lectin protein,[2],3.70
same,Signal Fold Change AT1G06720 expressed protein,[2],1.26
same,"Signal Fold Change AT1G07280, unknown biological function",[2],0.37
same,Signal Fold Change AT1G07560 leucine-rich repeat protein kinase,[2],1.99
same,Signal Fold Change AT1G08650 phosphoenolpyruvate carboxylase kinase,[2],3.40
same,Signal Fold Change AT1G08990 glycogenin glucosyltransferase,[2],2.60
same,Signal Fold Change AT1G09530 phytochrome interacting factor 3,[2],0.29
same,Signal Fold Change AT1G10760 starch excess protein (SEX1),[2],0.43
same,"Signal Fold Change AT1G13430, response to cytokinin stimulus, sulfotransferase protein",[2],0.34
same,Signal Fold Change AT1G14540 anionic peroxidase,[2],0.42
same,Signal Fold Change AT1G15380 lactoylglutathione lyase,[2],2.99
same,"Signal Fold Change AT1G17970, unknown biological function",[2],2.35
same,Signal Fold Change AT1G18880 proton-dependent oligopeptide transport (POT) protein,[2],2.51
same,"Signal Fold Change AT1G20190, cell wall organization and biogenesis, expansin (EXP11)",[2],0.43
same,Signal Fold Change AT1G22740 Ras-related protein (RAB7),[2],3.52
same,"Signal Fold Change AT1G23060, unknown biological function",[2],0.35
same,"Signal Fold Change AT1G26930, unknown biological function",[2],0.40
same,Signal Fold Change AT1G27380 p21-rho-binding domain-containing protein,[2],2.14
same,"Signal Fold Change AT1G29520, unknown biological function",[2],2.27
same,"Signal Fold Change AT1G30750, unknown biological function",[2],2.87
same,Signal Fold Change AT1G31710 copper amine oxidase,[2],5.43
same,Signal Fold Change AT1G32410 vacuolar protein sorting 55 protein,[2],1.75
same,Signal Fold Change AT1G32560 late embryogenesis abundant group 1 domain-containing protein,[2],1.89
same,"Signal Fold Change AT1G33470, unknown biological function",[2],2.38
same,"Signal Fold Change AT1G33790, unknown biological function",[2],0.21
same,"Signal Fold Change AT1G34040, unknown biological function",[2],2.17
same,"Signal Fold Change AT1G35350, unknown biological function",[2],4.37
same,"Signal Fold Change AT1G35612, unknown biological function",[2],3.19
same,"Signal Fold Change AT1G42470, unknown biological function",[2],4.79
same,"Signal Fold Change AT1G44800, unknown biological function",[2],2.25
same,Signal Fold Change AT1G44830 AP2-containing transcription factor,[2],0.38
same,Signal Fold Change AT1G48480 leucine-rich repeat trans-membrane protein kinase,[2],3.43
same,Signal Fold Change AT1G49660 expressed protein,[2],0.47
same,Signal Fold Change AT1G50560 cytochrome P450,[2],2.50
same,Signal Fold Change AT1G52830 auxin-responsive protein,[2],4.43
same,Signal Fold Change AT1G56010 transcription activator NAC1,[2],2.97
same,"Signal Fold Change AT1G56020, unknown biological function",[2],0.49
same,"Signal Fold Change AT1G58070, unknown biological function",[2],2.37
same,"Signal Fold Change AT1G59590, unknown biological function",[2],3.94
same,Signal Fold Change AT1G59740 proton-dependent oligopeptide transport (POT) protein,[2],0.32
same,Signal Fold Change AT1G62290 aspartyl protease protein,[2],0.38
same,Signal Fold Change AT1G62510 lipid transfer protein,[2],2.20
same,"Signal Fold Change AT1G62620, unknown biological function",[2],3.52
same,Signal Fold Change AT1G64200 V-ATPase E subunit,[2],2.73
same,"Signal Fold Change AT1G65510, unknown biological function",[2],4.19
same,"Signal Fold Change AT1G65920, unknown biological function",[2],0.36
same,Signal Fold Change AT1G66230 myb transcription factor (MYB20),[2],3.14
same,Signal Fold Change AT1G67030 zinc finger (C2H2 type) protein,[2],10.77
same,"Signal Fold Change AT1G68230, unknown biological function",[2],2.59
same,Signal Fold Change AT1G68520 zinc finger (B-box type) protein,[2],1.15
same,Signal Fold Change AT1G69570 Dof-type zinc finger-containing protein,[2],6.31
same,Signal Fold Change AT1G70210 cyclin delta-1,[2],3.72
same,Signal Fold Change AT1G70850 Bet v I allergen protein,[2],22.18
same,Signal Fold Change AT1G70890 major latex protein,[2],5.05
same,Signal Fold Change AT1G71030 myb transcription factor (MYB2),[2],8.09
same,"Signal Fold Change AT1G71740, unknown biological function",[2],3.04
same,Signal Fold Change AT1G72230 plastocyanin like protein,[2],2.98
same,Signal Fold Change AT1G73220 sugar transporter protein,[2],5.76
same,Signal Fold Change AT1G73300 serine carboxypeptidase S10 protein,[2],1.69
same,Signal Fold Change AT1G73310 serine carboxypeptidase S10 protein,[2],4.07
same,Signal Fold Change AT1G73330 protease inhibitor,[2],31.27
same,Signal Fold Change AT1G73590 auxin efflux carrier protein,[2],2.03
same,"Signal Fold Change AT1G73640, small GTPase mediated signal transduction, Ras-related GTP-binding protein",[2],2.12
same,Signal Fold Change AT1G73830 bHLH protein,[2],0.20
same,"Signal Fold Change AT1G75500, unknown biological function",[2],3.18
same,"Signal Fold Change AT1G76220, unknown biological function",[2],4.28
same,"Signal Fold Change AT1G76500, photomorphogenesis, DNA-binding protein",[2],0.38
same,Signal Fold Change AT1G76540 cell division control protein,[2],2.97
same,"Signal Fold Change AT1G76790, unknown biological function",[2],3.71
same,Signal Fold Change AT1G78240 dehydration-responsive protein,[2],0.54
same,Signal Fold Change AT1G80380 phosphoribulokinase,[2],2.20
same,"Signal Fold Change AT2G01910, microtubule nucleation, microtubule associated protein (MAP65/ASE1) protein",[2],2.92
same,Signal Fold Change AT2G02820 myb transcription factor (MYB88),[2],4.90
same,Signal Fold Change AT2G02850 plantacyanin,[2],0.15
same,Signal Fold Change AT2G16580 auxin-responsive protein,[2],2.29
same,"Signal Fold Change AT2G16990, unknown biological function",[2],3.14
same,Signal Fold Change AT2G19590 ACC oxidase,[2],0.28
same,"Signal Fold Change AT2G19970, unknown biological function",[2],3.39
same,"Signal Fold Change AT2G20080, unknown biological function",[2],5.75
same,"Signal Fold Change AT2G20670, unknown biological function",[2],4.29
same,"Signal Fold Change AT2G21820, unknown biological function",[2],1.33
same,Signal Fold Change AT2G21880 Ras-related GTP-binding protein,[2],4.62
same,Signal Fold Change AT2G22860 phytosulfokines 2 (PSK2),[2],2.10
same,Signal Fold Change AT2G24150 expressed protein (response to hormone stimulus),[2],1.90
same,Signal Fold Change AT2G25900 zinc finger (CCCH-type) protein,[2],1.73
same,Signal Fold Change AT2G26070 expressed protein (response to ethylene stimulus),[2],0.28
same,Signal Fold Change AT2G26440 pectinesterase protein,[2],0.27
same,Signal Fold Change AT2G26740 epoxide hydrolase,[2],0.26
same,Signal Fold Change AT2G27140 heat shock protein,[2],2.74
same,"Signal Fold Change AT2G27370, unknown biological function",[2],2.51
same,"Signal Fold Change AT2G28305, unknown biological function",[2],2.57
same,"Signal Fold Change AT2G28410, unknown biological function",[2],2.79
same,Signal Fold Change AT2G29340 short-chain dehydrogenase,[2],0.39
same,"Signal Fold Change AT2G29440, toxin catabolic process, glutathione S-transferase",[2],0.26
same,Signal Fold Change AT2G30360 CBL-interacting protein kinase 11 (CIPK11),[2],3.63
same,Signal Fold Change AT2G33380 calcium-binding RD20 protein,[2],0.22
same,"Signal Fold Change AT2G33990, unknown biological function",[2],2.69
same,"Signal Fold Change AT2G34300, unknown biological function",[2],0.39
same,Signal Fold Change AT2G34500 cytochrome P450,[2],8.32
same,"Signal Fold Change AT2G34510, unknown biological function",[2],2.21
same,"Signal Fold Change AT2G34700, unknown biological function",[2],0.31
same,Signal Fold Change AT2G35300 late embryogenesis abundant group 1 domain-containing protein,[2],2.86
same,Signal Fold Change AT2G35710 glycogenin glucosyltransferase,[2],2.25
same,Signal Fold Change AT2G36350 protein kinase,[2],0.54
same,"Signal Fold Change AT2G36410, unknown biological function",[2],3.05
same,Signal Fold Change AT2G37130 peroxidase 21,[2],2.23
same,"Signal Fold Change AT2G38760, unknown biological function",[2],5.36
same,"Signal Fold Change AT2G38790, unknown biological function",[2],3.21
same,Signal Fold Change AT2G39010 aquaporin,[2],1.95
same,"Signal Fold Change AT2G39310, unknown biological function",[2],3.40
same,"Signal Fold Change AT2G39980, unknown biological function",[2],0.25
same,Signal Fold Change AT2G40420 amino acid transporter,[2],3.56
same,"Signal Fold Change AT2G41090, unknown biological function",[2],0.11
same,"Signal Fold Change AT2G41230, unknown biological function",[2],0.05
same,"Signal Fold Change AT2G42320, unknown biological function",[2],0.54
same,Signal Fold Change AT2G43050 pectinesterase protein,[2],3.42
same,Signal Fold Change AT2G43535 trypsin inhibitor,[2],6.32
same,Signal Fold Change AT2G44110 seven transmembrane MLO protein,[2],0.43
same,Signal Fold Change AT2G44130 kelch repeat containing F-box protein,[2],4.62
same,Signal Fold Change AT2G47510 fumarate hydratase,[2],0.48
same,Signal Fold Change AT2G47550 pectinesterase protein,[2],0.49
same,"Signal Fold Change AT2G48030, unknown biological function",[2],2.22
same,Signal Fold Change AT3G04010 glycosyl hydrolase,[2],3.80
same,"Signal Fold Change AT3G05990, signal transduction, phosphodiesterase leucine-rich repeat protein",[2],2.33
same,"Signal Fold Change AT3G09020, unknown biological function",[2],3.42
same,Signal Fold Change AT3G09780 protein kinase,[2],0.40
same,"Signal Fold Change AT3G10080, unknown biological function",[2],2.14
same,Signal Fold Change AT3G10340 phenylalanine ammonia-lyase,[2],2.63
same,"Signal Fold Change AT3G11550, unknown biological function",[2],2.97
same,"Signal Fold Change AT3G12030, DNA repair, expressed protein",[2],2.06
same,Signal Fold Change AT3G12500 basic endocexemplary inase,[2],3.58
same,"Signal Fold Change AT3G13980, unknown biological function",[2],6.58
same,Signal Fold Change AT3G14370 protein kinase,[2],0.36
